Source: ChEMBL document CHEMBL6087464, “Design, Synthesis, and Biological Evaluation of 3,4-Dihydroisoquinolin-1(2H)-one Derivatives as Protein Arginine Methyltransferase 5 Inhibitors for the Treatment of Non-Hodgkin's Lymphoma” (J Med Chem, 2025)
pIC50: −log10 of the molar value.

What was measured:
PRMT5/MEP50 complex = PRMT5/MEP50 complex (Homo sapiens, UniProt O14744); experiment: Inhibition of recombinant N-terminal FLAG-tagged human full-length PRMT5/full length human MEP50 extracted from baculovirus expression system using [3H]-SAM as substrate preincubated for 15 mins followed by substrate addition and measured after 60 mins by multimode plate reader analysis
Z-138 = experiment: Antiproliferative activity against human Z138 cells measured after 7 days by CellTiter-Glo luminescence cell viability assay; type: functional, cell-based; settings: Z-138, 168 h
[1] = Volume of distribution in Sprague-Dawley rat at 2 mg/kg, iv by LC-MS/MS analysis; type: ADME, organism-based; settings: in vivo
[2] = Half-life in Sprague-Dawley rat at 2 mg/kg, iv by LC-MS/MS analysis; type: ADME, organism-based; settings: in vivo
[3] = MRT (0 to t) in Sprague-Dawley rat at 2 mg/kg, iv by LC-MS/MS analysis; type: ADME, organism-based; settings: in vivo
[4] = MRT (0 to t) in Sprague-Dawley rat at 10 mg/kg, po by LC-MS/MS analysis; type: ADME, organism-based; settings: in vivo
[5] = Clearance in Sprague-Dawley rat at 2 mg/kg, iv by LC-MS/MS analysis; type: ADME, organism-based; settings: in vivo
[6] = target: Voltage-gated inwardly rectifying potassium channel KCNH2 (Homo sapiens, UniProt Q12809); experiment: Inhibition of human ERG; type: toxicity
[7] = AUC (0 to t) in Sprague-Dawley rat at 10 mg/kg, po by LC-MS/MS analysis; type: ADME, organism-based; settings: in vivo; for AUC(0-t): Sprague-Dawley
[8] = Cmax in Sprague-Dawley rat at 2 mg/kg, iv by LC-MS/MS analysis; type: ADME, organism-based; settings: in vivo
[9] = Oral bioavailability in Sprague-Dawley rat at 10 mg/kg by LC-MS/MS analysis; type: ADME, organism-based; settings: in vivo
[10] = Half-life in Sprague-Dawley rat at 10 mg/kg, po by LC-MS/MS analysis; type: ADME, organism-based; settings: in vivo; for half-life: Sprague-Dawley
[11] = AUC (0 to t) in Sprague-Dawley rat at 2 mg/kg, iv by LC-MS/MS analysis; type: ADME, organism-based; settings: in vivo
[12] = Cmax in Sprague-Dawley rat at 10 mg/kg, po by LC-MS/MS analysis; type: ADME, organism-based; settings: in vivo
[13] = Tmax in Sprague-Dawley rat at 10 mg/kg, po by LC-MS/MS analysis; type: ADME, organism-based; settings: in vivo
[14] = target: Protein arginine N-methyltransferase 6 (Homo sapiens, UniProt Q96LA8); experiment: Inhibition of PRMT6 (unknown origin)
[15] = target: T1, Protein arginine N-methyltransferase 7 (Homo sapiens, UniProt Q9NVM4); experiment: Inhibition of PRMT7 (unknown origin)
T1 sequence (Q9NVM4 whole entry): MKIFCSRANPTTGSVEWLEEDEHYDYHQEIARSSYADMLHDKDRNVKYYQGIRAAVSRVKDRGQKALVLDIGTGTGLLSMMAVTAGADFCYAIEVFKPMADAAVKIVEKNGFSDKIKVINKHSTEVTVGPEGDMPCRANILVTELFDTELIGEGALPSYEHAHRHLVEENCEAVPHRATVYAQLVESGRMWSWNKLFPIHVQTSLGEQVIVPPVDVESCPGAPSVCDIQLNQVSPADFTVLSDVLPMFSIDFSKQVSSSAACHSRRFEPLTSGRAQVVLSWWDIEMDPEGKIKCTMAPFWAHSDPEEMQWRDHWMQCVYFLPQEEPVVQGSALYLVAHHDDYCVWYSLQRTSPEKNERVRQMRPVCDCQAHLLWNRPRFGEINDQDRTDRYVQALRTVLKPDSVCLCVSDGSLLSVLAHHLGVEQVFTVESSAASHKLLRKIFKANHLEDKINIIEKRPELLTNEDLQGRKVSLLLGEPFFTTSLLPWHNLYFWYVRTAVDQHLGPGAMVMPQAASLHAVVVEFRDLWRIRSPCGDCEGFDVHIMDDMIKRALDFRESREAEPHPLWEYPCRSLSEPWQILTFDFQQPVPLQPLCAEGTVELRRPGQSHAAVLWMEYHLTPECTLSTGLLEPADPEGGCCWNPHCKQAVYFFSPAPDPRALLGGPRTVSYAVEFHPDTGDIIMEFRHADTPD

[16] = target: Protein arginine N-methyltransferase 3 (Homo sapiens, UniProt O60678); experiment: Inhibition of PRMT3 (unknown origin)
[17] = target: Protein arginine N-methyltransferase 8 (Homo sapiens, UniProt Q9NR22); experiment: Inhibition of PRMT8 (unknown origin)
[18] = target: T2, Histone-arginine methyltransferase CARM1 (Homo sapiens, UniProt Q86X55); experiment: Inhibition of PRMT4 (unknown origin)
T2 sequence (Q86X55 whole entry): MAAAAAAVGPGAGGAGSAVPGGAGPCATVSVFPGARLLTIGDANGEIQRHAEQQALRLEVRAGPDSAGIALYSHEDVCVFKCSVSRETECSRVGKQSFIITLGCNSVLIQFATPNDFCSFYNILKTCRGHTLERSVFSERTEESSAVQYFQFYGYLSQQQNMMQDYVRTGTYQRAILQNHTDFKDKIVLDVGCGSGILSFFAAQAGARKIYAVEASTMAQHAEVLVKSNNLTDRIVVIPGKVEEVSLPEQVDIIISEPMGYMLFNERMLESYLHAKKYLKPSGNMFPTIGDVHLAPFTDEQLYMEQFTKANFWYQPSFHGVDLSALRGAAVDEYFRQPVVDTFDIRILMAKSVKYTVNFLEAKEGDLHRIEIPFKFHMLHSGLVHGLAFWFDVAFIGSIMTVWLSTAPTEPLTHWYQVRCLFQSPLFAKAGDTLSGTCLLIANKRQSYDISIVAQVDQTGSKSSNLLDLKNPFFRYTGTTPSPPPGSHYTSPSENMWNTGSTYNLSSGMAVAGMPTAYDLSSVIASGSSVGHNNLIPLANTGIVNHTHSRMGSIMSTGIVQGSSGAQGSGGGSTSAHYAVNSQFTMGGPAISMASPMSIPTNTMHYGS

PRMT5/MEP50 complex, sequence (O14744 whole entry): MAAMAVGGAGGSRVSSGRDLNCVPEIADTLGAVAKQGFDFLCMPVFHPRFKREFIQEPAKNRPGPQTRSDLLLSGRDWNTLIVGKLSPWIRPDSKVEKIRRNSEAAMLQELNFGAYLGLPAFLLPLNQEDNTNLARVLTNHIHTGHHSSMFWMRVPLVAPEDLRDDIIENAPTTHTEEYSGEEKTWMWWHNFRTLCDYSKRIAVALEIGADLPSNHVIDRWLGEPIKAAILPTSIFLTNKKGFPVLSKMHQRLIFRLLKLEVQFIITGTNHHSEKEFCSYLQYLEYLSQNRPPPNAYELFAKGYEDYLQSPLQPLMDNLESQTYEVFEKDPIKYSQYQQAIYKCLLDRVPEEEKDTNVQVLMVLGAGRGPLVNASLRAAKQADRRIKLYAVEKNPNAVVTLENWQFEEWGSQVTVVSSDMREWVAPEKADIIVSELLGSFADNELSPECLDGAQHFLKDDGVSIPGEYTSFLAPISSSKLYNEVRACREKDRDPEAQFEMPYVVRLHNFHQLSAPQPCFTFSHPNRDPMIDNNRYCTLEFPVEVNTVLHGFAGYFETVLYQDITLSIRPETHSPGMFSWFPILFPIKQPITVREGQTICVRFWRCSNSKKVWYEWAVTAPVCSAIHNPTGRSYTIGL
PRMT5/MEP50 complex, sequence (Q9BQA1 whole entry, further chain): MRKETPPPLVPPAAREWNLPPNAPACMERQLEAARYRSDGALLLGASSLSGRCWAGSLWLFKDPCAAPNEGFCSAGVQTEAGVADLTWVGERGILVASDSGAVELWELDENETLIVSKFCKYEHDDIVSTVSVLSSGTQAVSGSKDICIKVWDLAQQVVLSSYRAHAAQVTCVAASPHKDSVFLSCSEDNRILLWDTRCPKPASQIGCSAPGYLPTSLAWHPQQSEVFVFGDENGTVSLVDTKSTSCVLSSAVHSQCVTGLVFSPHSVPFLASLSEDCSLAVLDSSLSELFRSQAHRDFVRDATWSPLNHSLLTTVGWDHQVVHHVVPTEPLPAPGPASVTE
Voltage-gated inwardly rectifying potassium channel KCNH2, sequence (Q12809 whole entry): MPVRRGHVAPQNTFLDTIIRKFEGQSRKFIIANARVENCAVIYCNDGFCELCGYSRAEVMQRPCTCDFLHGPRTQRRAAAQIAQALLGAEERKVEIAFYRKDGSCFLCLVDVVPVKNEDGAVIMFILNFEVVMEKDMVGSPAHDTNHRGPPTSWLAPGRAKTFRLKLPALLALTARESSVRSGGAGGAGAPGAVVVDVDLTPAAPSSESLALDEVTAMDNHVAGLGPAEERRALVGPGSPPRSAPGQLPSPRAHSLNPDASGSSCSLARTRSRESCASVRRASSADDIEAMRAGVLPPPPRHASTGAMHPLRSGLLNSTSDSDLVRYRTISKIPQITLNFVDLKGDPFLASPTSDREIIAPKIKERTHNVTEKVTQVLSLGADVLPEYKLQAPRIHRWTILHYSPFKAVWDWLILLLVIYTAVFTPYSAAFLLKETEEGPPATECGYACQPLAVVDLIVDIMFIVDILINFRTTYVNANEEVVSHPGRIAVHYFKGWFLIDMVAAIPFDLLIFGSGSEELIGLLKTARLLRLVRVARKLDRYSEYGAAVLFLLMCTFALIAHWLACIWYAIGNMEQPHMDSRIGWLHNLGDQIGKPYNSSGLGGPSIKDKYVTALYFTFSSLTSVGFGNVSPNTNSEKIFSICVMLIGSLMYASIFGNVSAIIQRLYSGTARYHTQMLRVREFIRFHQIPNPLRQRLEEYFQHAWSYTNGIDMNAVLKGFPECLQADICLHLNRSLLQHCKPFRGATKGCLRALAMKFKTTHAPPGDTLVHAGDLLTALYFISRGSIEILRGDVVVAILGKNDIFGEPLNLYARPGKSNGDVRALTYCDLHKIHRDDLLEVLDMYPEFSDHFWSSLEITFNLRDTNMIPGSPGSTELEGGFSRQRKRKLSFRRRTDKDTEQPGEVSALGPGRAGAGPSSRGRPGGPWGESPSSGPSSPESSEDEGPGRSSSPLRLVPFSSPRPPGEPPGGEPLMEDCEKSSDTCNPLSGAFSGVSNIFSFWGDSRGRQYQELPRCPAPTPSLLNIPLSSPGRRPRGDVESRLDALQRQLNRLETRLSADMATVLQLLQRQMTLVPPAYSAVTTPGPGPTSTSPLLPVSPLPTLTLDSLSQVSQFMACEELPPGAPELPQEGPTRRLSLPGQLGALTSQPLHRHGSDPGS
Protein arginine N-methyltransferase 3, sequence (O60678 whole entry): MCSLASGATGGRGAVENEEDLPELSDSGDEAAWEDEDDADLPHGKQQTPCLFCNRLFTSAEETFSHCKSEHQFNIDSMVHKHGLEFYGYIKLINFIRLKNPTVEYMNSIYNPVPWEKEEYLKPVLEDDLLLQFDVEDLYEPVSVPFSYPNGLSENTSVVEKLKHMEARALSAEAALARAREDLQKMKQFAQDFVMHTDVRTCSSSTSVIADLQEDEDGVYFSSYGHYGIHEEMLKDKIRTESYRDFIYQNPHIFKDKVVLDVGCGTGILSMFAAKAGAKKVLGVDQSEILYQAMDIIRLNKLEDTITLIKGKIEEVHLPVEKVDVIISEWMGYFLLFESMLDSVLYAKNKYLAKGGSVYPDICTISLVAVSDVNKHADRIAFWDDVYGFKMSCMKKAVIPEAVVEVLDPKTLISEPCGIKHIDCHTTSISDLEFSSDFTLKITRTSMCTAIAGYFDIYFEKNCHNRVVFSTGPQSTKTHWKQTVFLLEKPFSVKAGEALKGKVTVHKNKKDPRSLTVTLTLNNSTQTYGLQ
Protein arginine N-methyltransferase 6, sequence (Q96LA8 whole entry): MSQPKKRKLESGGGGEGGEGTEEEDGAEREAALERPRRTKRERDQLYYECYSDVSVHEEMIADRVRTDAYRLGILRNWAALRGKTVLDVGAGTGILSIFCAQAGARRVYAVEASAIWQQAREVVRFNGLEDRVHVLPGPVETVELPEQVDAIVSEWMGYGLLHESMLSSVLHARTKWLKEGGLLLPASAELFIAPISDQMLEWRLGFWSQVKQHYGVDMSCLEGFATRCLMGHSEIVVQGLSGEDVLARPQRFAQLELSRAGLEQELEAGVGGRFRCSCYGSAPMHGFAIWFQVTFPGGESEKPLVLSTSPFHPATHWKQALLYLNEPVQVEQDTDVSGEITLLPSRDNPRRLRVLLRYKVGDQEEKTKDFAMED
Protein arginine N-methyltransferase 8, sequence (Q9NR22 whole entry): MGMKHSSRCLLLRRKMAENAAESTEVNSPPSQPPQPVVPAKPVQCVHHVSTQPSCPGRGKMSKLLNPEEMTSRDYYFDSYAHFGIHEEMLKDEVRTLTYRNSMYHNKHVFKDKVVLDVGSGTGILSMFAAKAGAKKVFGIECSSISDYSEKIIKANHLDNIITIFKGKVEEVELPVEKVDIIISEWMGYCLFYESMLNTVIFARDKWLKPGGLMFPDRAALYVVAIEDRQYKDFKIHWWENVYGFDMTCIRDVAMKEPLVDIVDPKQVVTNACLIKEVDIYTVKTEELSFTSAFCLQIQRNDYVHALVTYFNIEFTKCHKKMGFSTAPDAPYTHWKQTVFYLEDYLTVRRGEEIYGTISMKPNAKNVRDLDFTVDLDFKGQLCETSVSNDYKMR

Compound: Cn1cc(C(=O)Nc2ccc3c(c2)C(=O)N(C[C@H](O)CN2CCc4ccccc4C2)CC32CC2)cn1
- pIC50 (PRMT5/MEP50 complex): 8.00
- pIC50 (Z-138): 6.54

Compound: O=C(Nc1ccc2c(c1)C(=O)N(C[C@H](O)CN1CCc3ccccc3C1)CC21CC1)c1ccccc1
- pIC50 (PRMT5/MEP50 complex): 7.97
- pIC50 (Z-138): 6.40

Compound: CC(=O)N1CCC(Nc2ccc3c(c2)C(=O)N(C[C@H](O)CN2CCc4ccccc4C2)CC32CCC2)CC1
- Vd [1]: 1.6 L/kg
- half-life [2]: 48 min
- MRT last [3]: 48 min
- pIC50 (PRMT5/MEP50 complex): 7.58
- MRT last [4]: 132 min
- clearance [5]: 25 mL/min/kg
- pIC50 [6]: 6.34
- AUC(0-t) [7]: 1600 ng·h/mL
- pIC50 (Z-138): 8.41
- Cmax [8]: 1770 ng/mL
- bioavailability [9]: 23.4%
- half-life [10]: 210 min
- AUC(0-t) [11]: 1370 ng·h/mL
- Cmax ([12]; Sprague-Dawley, read-out: Cmax): 840 ng/mL
- Tmax ([13]; Sprague-Dawley, read-out: Tmax): 18 min

Compound: CC(=O)N1CCC(C(=O)N2CCC3(CC2)CCN(C[C@H](O)CN2CCc4ccccc4C2)C3=O)CC1
- pIC50 (PRMT5/MEP50 complex): < 5.00

Compound: CC(=O)N1CCC(C(=O)N2CCC3(CC2)C(=O)N(C[C@H](O)CN2CCc4ccccc4C2)c2ccccc23)CC1
- pIC50 (PRMT5/MEP50 complex): 5.51

Compound: CC(=O)N1CCC(Nc2ccc3c(c2)C(=O)N(C[C@H](O)CN2CCc4ccccc4C2)CC32CC2)CC1
- Vd [1]: 2.6 L/kg
- half-life [2]: 24 min
- MRT last [3]: 18 min
- pIC50 (PRMT5/MEP50 complex): 7.74
- MRT last [4]: 60 min
- clearance [5]: 71.7 mL/min/kg
- AUC(0-t) [7]: 1460 ng·h/mL
- pIC50 (Z-138): 8.36
- Cmax [8]: 1560 ng/mL
- bioavailability [9]: 63.1%
- half-life [10]: 54 min
- AUC(0-t) [11]: 464 ng·h/mL
- Cmax ([12]; Sprague-Dawley, read-out: Cmax): 1150 ng/mL
- Tmax ([13]; Sprague-Dawley, read-out: Tmax): 18 min

Compound: O=C(Nc1ccc2c(c1)C(=O)N(C[C@H](O)CN1CCc3ccccc3C1)CC21CC1)C1CCOCC1
- pIC50 (PRMT5/MEP50 complex): 7.78
- pIC50 (Z-138): 6.55

Compound: CC(=O)N1CCC(Nc2ccc3c(c2)C(=O)N(C[C@H](O)CN2CCc4ccccc4C2)CC32CCCC2)CC1
- Vd [1]: 2.8 L/kg
- half-life [2]: 78 min
- MRT last [3]: 60 min
- pIC50 (PRMT5/MEP50 complex): 7.65
- MRT last [4]: 6 min
- clearance [5]: 25 mL/min/kg
- pIC50 [6]: 6.46
- AUCt ([7]; po, 10 mg/kg): 794.2 ng·h/mL
- pIC50 (Z-138): 7.99
- Cmax [8]: 943 ng/mL
- bioavailability [9]: 24.2%
- t1/2 ([10]; po, 10 mg/kg): 18 min
- AUC(0-t) [11]: 656 ng·h/mL
- Cmax ([12]; po, 10 mg/kg): 149.5 ng/mL
- Tmax ([13]; po, 10 mg/kg): 6 min

Compound: Cn1cc(C(=O)Nc2ccc3c(c2)C(=O)N(C[C@H](O)CN2CCc4ccccc4C2)CC32CCC2)cn1
- pIC50 (PRMT5/MEP50 complex): 7.79
- pIC50 (Z-138): 6.50

Compound: O=C1c2cc(NC3CCNCC3)ccc2C2(CC2)CN1C[C@H](O)CN1CCc2ccccc2C1
- pIC50 (PRMT5/MEP50 complex): 8.05
- pIC50 (Z-138): 6.23

Compound: O=C1c2cc(NC3CCN(C(=O)C4CC4)CC3)ccc2C2(CCCC2)CN1C[C@H](O)CN1CCc2ccccc2C1
- pIC50 (PRMT5/MEP50 complex): 7.34
- pIC50 (Z-138): 7.69

Compound: O=C1c2cc(NS(=O)(=O)c3ccccc3)ccc2C2(CC2)CN1C[C@H](O)CN1CCc2ccccc2C1
- pIC50 (PRMT5/MEP50 complex): 6.60

Compound: CC(=O)N1CCC(C(=O)Nc2ccc3c(c2)C(=O)N(C[C@H](O)CN2CCc4ccccc4C2)CC32CCC2)CC1
- pIC50 (PRMT5/MEP50 complex): 8.40
- pIC50 (Z-138): 7.04

Compound: CC(=O)N1CCC(Nc2ccc3c(c2)CC(=O)N3C[C@H](O)CN2CCc3ccccc3C2)CC1
- pIC50 (PRMT5/MEP50 complex): < 5.00

Compound: C[S+](CC[C@H](N)C(=O)[O-])C[C@H]1O[C@@H](n2cnc3c(N)ncnc32)[C@H](O)[C@@H]1O (some centres undefined) [ADEMETIONINE]
- pIC50 (PRMT5/MEP50 complex): 6.10
- pIC50 [14]: 5.90
- pIC50 [15]: 6.31
- pIC50 [16]: 5.29
- pIC50 [17]: 6.12
- pIC50 [18]: 7.38

Compound: CC(=O)N1CCC(C(=O)Nc2ccc3c(c2)C(=O)N(C[C@H](O)CN2CCc4ccccc4C2)CC32CC2)CC1
- pIC50 (PRMT5/MEP50 complex): 8.06
- pIC50 (Z-138): 6.99

Compound: CC(=O)N1CCC(Nc2ccc3c(c2)N(C[C@H](O)CN2CCc4ccccc4C2)C(=O)C3)CC1
- pIC50 (PRMT5/MEP50 complex): < 5.00

Compound: CC(=O)N1CCC(Nc2cc3c(cn2)C2(CC2)CN(C[C@H](O)CN2CCc4ccccc4C2)C3=O)CC1
- Vd [1]: 3 L/kg
- half-life [2]: 24 min
- MRT last [3]: 54 min
- MRT last [4]: 12 min
- clearance [5]: 38.3 mL/min/kg
- AUC(0-t) [7]: 356 ng·h/mL
- pIC50 (Z-138): 8.51
- Cmax [8]: 678 ng/mL
- bioavailability [9]: 16.4%
- half-life [10]: 24 min
- AUC(0-t) [11]: 435 ng·h/mL
- Cmax ([12]; Sprague-Dawley, read-out: Cmax): 145 ng/mL
- Tmax ([13]; Sprague-Dawley, read-out: Tmax): 24 min

Compound: CC(=O)N1CCC(Nc2ccc3c(c2)C(=O)N(C[C@H](O)CN2CCc4ccccc4C2)CC3)CC1
- pIC50 (PRMT5/MEP50 complex): 7.43
- pIC50 (Z-138): 7.85

Compound: CC(=O)N1CCC(Nc2ccc3c(n2)C(=O)N(C[C@H](O)CN2CCc4ccccc4C2)CC32CC2)CC1
- pIC50 (PRMT5/MEP50 complex): 7.06
- pIC50 (Z-138): 6.55

Compound: CC(=O)N1CCC(Nc2ccc3c(c2)C(=O)N(C[C@H](O)CN2CCc4ccccc4C2)CC32CCOC2)CC1 (some centres undefined)
- pIC50 (PRMT5/MEP50 complex): 6.94
